Converted amounts (≈) assume the structure as drawn.
Columns and labels:
Assay type in all cases: functional
[1] = system: Mycobacterium tuberculosis; assay: Antibacterial activity against isoniazid-resistant Mycobacterium tuberculosis by microplate Alamar Blue assay
[2] = system: Mycobacterium tuberculosis; assay: Antibacterial activity against kanamycin-resistant Mycobacterium tuberculosis by microplate Alamar Blue assay
[3] = system: Mycobacterium tuberculosis; assay: Antibacterial activity against ciprofloxacin-resistant Mycobacterium tuberculosis by microplate Alamar Blue assay
[4] = system: Mycobacterium tuberculosis; assay: Antibacterial activity against rifampin-resistant Mycobacterium tuberculosis by microplate Alamar Blue assay
[5] = system: Mycobacterium tuberculosis; assay: Antibacterial activity against thiacetazone-resistant Mycobacterium tuberculosis by microplate Alamar Blue assay
[6] = system: Mycobacterium tuberculosis; assay: Antibacterial activity against ethambutol-resistant Mycobacterium tuberculosis by microplate Alamar Blue assay
[7] = system: Mycobacterium tuberculosis; assay: Antibacterial activity against ethionamide-resistant Mycobacterium tuberculosis by microplate Alamar Blue assay

CCOC(=O)c1c(C)[n+]([O-])c2cc(C)c(C)cc2[n+]1[O-]
MIC [1]: 6.25 µg/mL (≈ 22.6 µM)
MIC [2]: ≤ 3.13 µg/mL
MIC [3]: 12.5 µg/mL (≈ 45.2 µM)
MIC [4]: ≤ 3.13 µg/mL
MIC [5]: ≤ 3.13 µg/mL
MIC [6]: ≤ 3.13 µg/mL
MIC [7]: 6.25 µg/mL (≈ 22.6 µM)

CCOC(=O)c1c(C)[n+]([O-])c2ccc(C)cc2[n+]1[O-]
MIC [3]: 6.25 µg/mL (≈ 23.8 µM)
MIC [4]: 3.13 µg/mL (≈ 11.9 µM)
MIC [5]: 0.39 µg/mL (≈ 1.49 µM)
MIC [7]: 6.25 µg/mL (≈ 23.8 µM)

CCOC(=O)c1c(C)[n+]([O-])c2ccccc2[n+]1[O-]
MIC [1]: 1.56 µg/mL (≈ 6.28 µM)
MIC [2]: 1.56 µg/mL (≈ 6.28 µM)
MIC [3]: 3.13 µg/mL (≈ 12.6 µM)
MIC [4]: 1.56 µg/mL (≈ 6.28 µM)

CCOC(=O)c1c(C)[n+]([O-])c2cc(Cl)c(Cl)cc2[n+]1[O-]
MIC [1]: 0.39 µg/mL (≈ 1.23 µM)
MIC [2]: ≤ 0.1 µg/mL
MIC [3]: 0.2 µg/mL (≈ 0.631 µM)
MIC [4]: 0.2 µg/mL (≈ 0.631 µM)
MIC [6]: 0.2 µg/mL (≈ 0.631 µM)

COCCOC(=O)c1c(C)[n+]([O-])c2cc(Cl)c(Cl)cc2[n+]1[O-]
MIC [1]: ≤ 0.2 µg/mL
MIC [3]: 0.39 µg/mL (≈ 1.12 µM)
MIC [4]: ≤ 0.2 µg/mL
MIC [5]: 0.39 µg/mL (≈ 1.12 µM)
MIC [7]: 0.78 µg/mL (≈ 2.25 µM)

Cc1ccc2c(c1)[n+]([O-])c(C(=O)OCc1ccccc1)c(C)[n+]2[O-]
MIC [3]: 0.39 µg/mL (≈ 1.2 µM)
MIC [4]: 0.39 µg/mL (≈ 1.2 µM)
MIC [5]: 0.39 µg/mL (≈ 1.2 µM)
MIC [7]: 1.56 µg/mL (≈ 4.81 µM)

Cc1c(C(=O)OCc2ccccc2)[n+]([O-])c2ccccc2[n+]1[O-]
MIC [1]: 0.2 µg/mL (≈ 0.645 µM)
MIC [3]: 0.1 µg/mL (≈ 0.322 µM)
MIC [4]: 0.2 µg/mL (≈ 0.645 µM)
MIC [5]: 0.2 µg/mL (≈ 0.645 µM)
MIC [7]: 0.4 µg/mL (≈ 1.29 µM)

Cc1c(C(=O)OCc2ccccc2)[n+]([O-])c2cc(Cl)c(Cl)cc2[n+]1[O-]
MIC [1]: 1.56 µg/mL (≈ 4.11 µM)
MIC [2]: 0.39 µg/mL (≈ 1.03 µM)
MIC [3]: 0.39 µg/mL (≈ 1.03 µM)
MIC [4]: 0.39 µg/mL (≈ 1.03 µM)
MIC [5]: 0.78 µg/mL (≈ 2.06 µM)
MIC [6]: 0.78 µg/mL (≈ 2.06 µM)
MIC [7]: 0.78 µg/mL (≈ 2.06 µM)

COC(=O)c1c(C)[n+]([O-])c2ccc(C)cc2[n+]1[O-]
MIC [1]: 6.25 µg/mL (≈ 25.2 µM)
MIC [2]: 25 µg/mL (≈ 101 µM)
MIC [3]: 6.25 µg/mL (≈ 25.2 µM)
MIC [4]: 3.13 µg/mL (≈ 12.6 µM)
MIC [5]: 1.56 µg/mL (≈ 6.28 µM)
MIC [6]: 25 µg/mL (≈ 101 µM)
MIC [7]: 3.13 µg/mL (≈ 12.6 µM)

COC(=O)c1c(C)[n+]([O-])c2cc(C)c(C)cc2[n+]1[O-]
MIC [1]: 3.13 µg/mL (≈ 11.9 µM)
MIC [2]: 3.13 µg/mL (≈ 11.9 µM)
MIC [3]: 3.13 µg/mL (≈ 11.9 µM)
MIC [4]: 3.13 µg/mL (≈ 11.9 µM)
MIC [5]: ≤ 1.56 µg/mL
MIC [6]: ≤ 1.56 µg/mL
MIC [7]: 3.13 µg/mL (≈ 11.9 µM)

CCOC(=O)c1c(C)[n+]([O-])c2ccc(Cl)cc2[n+]1[O-]
MIC [1]: 0.39 µg/mL (≈ 1.38 µM)
MIC [2]: 0.39 µg/mL (≈ 1.38 µM)
MIC [3]: 0.78 µg/mL (≈ 2.76 µM)
MIC [4]: 0.39 µg/mL (≈ 1.38 µM)
MIC [6]: 0.39 µg/mL (≈ 1.38 µM)
